The supplement of paper PMC10307832

Tests used:
Assay in all cases: relative viability (nuclei count vs DMSO), 5 days (fraction); higher = more cells survive
[1] = compound: CS(=O)(=O)c1ccc(-c2cnc(N)c(C(=O)Nc3ccccc3)n2)cc1 [VE-821] + CC(C)C[C@H](NC(=O)[C@H](Cc1ccccc1)NC(=O)c1cnccn1)B(O)O [Bortezomib] (partner 0.002 µM)
Outline: (§1)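 The day after seeding in 1536-well plates, lung cancer cell lines were treated by pin tool with a single drug, or with a fixed anchor-drug dose together with five library-drug doses (not always all listed) in √10 steps. After 5 days, a combined fix-and-stain solution (final 0.05% Triton X-100, 1% formaldehyde, 1 ug/ml Hoechst) was added. Nuclei counted on 4× images gave relative viability as treated counts over vehicle counts, reported as the median of duplicate plates.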

[2] = compound: CS(=O)(=O)c1ccc(-c2cnc(N)c(C(=O)Nc3ccccc3)n2)cc1 [VE-821] + Cc1cc(Nc2cc(N3CCN(C)CC3)nc(Sc3ccc(NC(=O)C4CC4)cc3)n2)n[nH]1 [Tozasertib] (partner 0.1 µM)
Outline: as §1

[3] = compound: CS(=O)(=O)c1ccc(C(=O)Nc2ccc(Cl)c(-c3ccccn3)c2)c(Cl)c1 [Vismodegib] + Nc1ncn([C@H]2C[C@H](O)[C@@H](CO)O2)c(=O)n1 [Decitabine] (partner 2 µM)
Outline: as §1

[4] = compound: CS(=O)(=O)c1ccc(C(=O)Nc2ccc(Cl)c(-c3ccccn3)c2)c(Cl)c1 [Vismodegib] + N=C(N)NC(=N)NCCc1ccccc1 [Phenformin] (partner 250 µM)
Outline: as §1

| Cell Line | relative viability ([1]; first compound 0.08 µM) | relative viability ([1]; first compound 0.253 µM) | relative viability ([1]; first compound 0.8 µM) | relative viability ([1]; first compound 2.53 µM) | relative viability ([1]; first compound 8 µM) | relative viability ([2]; first compound 0.08 µM) | relative viability ([2]; first compound 0.253 µM) | relative viability ([2]; first compound 0.8 µM) | relative viability ([2]; first compound 2.53 µM) | relative viability ([2]; first compound 8 µM) | relative viability ([3]; first compound 0.08 µM) | relative viability ([3]; first compound 0.253 µM) | relative viability ([3]; first compound 0.8 µM) | relative viability ([3]; first compound 2.53 µM) | relative viability ([3]; first compound 8 µM) | relative viability ([4]; first compound 0.08 µM) | relative viability ([4]; first compound 0.253 µM) | relative viability ([4]; first compound 0.8 µM) | relative viability ([4]; first compound 2.53 µM) | relative viability ([4]; first compound 8 µM) |
| --- | --- | --- | --- | --- | --- | --- | --- | --- | --- | --- | --- | --- | --- | --- | --- | --- | --- | --- | --- | --- |
| 201T | 1.11 | 1.06 | 1.07 | 1.07 | 1.06 | 1.04 | 0.988 | 0.896 | 0.929 | 0.636 | 0.826 | 0.813 | 0.869 | 0.848 | 0.846 | 0.45 | 0.49 | 0.423 | 0.45 | 0.44 |
| A549 | – | – | – | – | – | – | – | – | – | – | 0.268 | 0.228 | – | 0.263 | 0.205 | 0.151 | 0.148 | 0.226 | 0.115 | 0.155 |
| A-427 | 0.964 | 0.937 | 0.906 | 0.93 | 0.695 | 0.231 | 0.186 | 0.217 | 0.192 | 0.144 | 0.515 | 0.569 | 0.546 | 0.499 | 0.582 | 0.307 | 0.385 | 0.385 | 0.314 | 0.283 |
| ABC-1 | 0.333 | 0.335 | 0.288 | 0.368 | 0.307 | 0.201 | 0.17 | 0.15 | 0.181 | 0.16 | 1.06 | 1.01 | 0.999 | 1.2 | 1.01 | 0.231 | 0.253 | 0.241 | 0.24 | 0.235 |
| BEN | 0.872 | 0.759 | 0.992 | 1.03 | 0.712 | 0.591 | 0.579 | 0.495 | 0.631 | 0.589 | 0.684 | 0.691 | 0.648 | 0.697 | 0.782 | 0.249 | 0.281 | 0.292 | 0.255 | 0.248 |
| CAL-12T | 1.04 | 0.984 | 1.13 | 0.996 | 0.717 | 0.307 | 0.227 | 0.189 | 0.207 | 0.147 | – | – | – | – | – | 0.641 | 0.584 | 0.578 | 0.561 | 0.578 |
| COR-L23 | 1.1 | 0.997 | 1.06 | 1 | 1.06 | 0.195 | 0.168 | 0.131 | 0.142 | 0.14 | 0.413 | 0.429 | 0.505 | 0.441 | 0.41 | 0.441 | 0.423 | 0.43 | 0.453 | 0.493 |
| COR-L 105 | 0.746 | 0.841 | 0.677 | 0.738 | 0.467 | 0.37 | 0.373 | 0.374 | 0.284 | 0.333 | 0.589 | 0.593 | 0.676 | 0.708 | 0.627 | 0.498 | 0.441 | 0.516 | 0.506 | 0.495 |
| Calu-6 | 0.945 | 0.907 | 0.891 | 0.937 | 0.429 | – | – | – | – | – | – | – | – | – | – | – | – | – | – | – |
| ChaGo-K-1 | 1 | 1.01 | 1.24 | 0.989 | 0.812 | 0.219 | 0.248 | 0.219 | 0.201 | 0.22 | 0.503 | 0.508 | 0.504 | 0.505 | 0.561 | 0.523 | 0.448 | 0.47 | 0.459 | 0.452 |
| EBC-1 | 0.534 | 0.546 | 0.555 | 0.517 | 0.4 | – | – | – | – | – | – | – | – | – | – | – | – | – | – | – |
| EKVX | 1.06 | 1.11 | 1.02 | 1.21 | 0.912 | 0.45 | 0.346 | 0.352 | 0.39 | 0.309 | – | 0.383 | 0.327 | 0.297 | 0.336 | 0.225 | 0.227 | 0.24 | 0.224 | 0.233 |
| EMC-BAC-2 | 1.12 | 1.08 | 1.15 | 1.11 | 1.04 | 0.344 | 0.306 | 0.322 | 0.253 | 0.277 | 1 | 0.926 | 0.964 | 0.9 | 1.04 | 0.571 | 0.53 | 0.5 | 0.506 | 0.502 |
| EPLC-272H | 0.955 | 0.927 | 1.12 | 1.13 | 0.814 | 0.363 | 0.26 | 0.374 | 0.211 | 0.154 | 0.375 | 0.358 | 0.358 | 0.362 | 0.341 | 0.348 | 0.313 | 0.316 | 0.271 | 0.264 |
| H3255 | 0.799 | 0.882 | 0.813 | 0.853 | 0.906 | 0.74 | 0.777 | 0.633 | 0.639 | 0.612 | 0.569 | 0.567 | 0.578 | 0.604 | 0.562 | 0.362 | 0.378 | 0.362 | 0.324 | 0.413 |
| HARA | 1.4 | 1.07 | 1.22 | 1.23 | 1.05 | 0.109 | 0.111 | 0.106 | 0.112 | 0.0878 | 0.553 | – | 0.514 | 0.509 | 0.55 | 0.47 | 0.355 | 0.537 | 0.503 | 0.415 |
| HCC-15 | 1.22 | 1.02 | 1.02 | 1.13 | 1.1 | 0.451 | 0.361 | 0.322 | 0.347 | 0.309 | 0.635 | 0.659 | 0.687 | 0.668 | 0.576 | 0.511 | 0.458 | 0.472 | 0.496 | 0.441 |
| HCC-44 | 1 | 0.908 | 0.98 | 1.01 | 0.975 | 1.08 | 0.865 | 0.841 | 0.907 | 0.708 | 0.945 | 0.942 | 0.93 | 0.937 | 1.04 | 0.184 | 0.195 | 0.179 | 0.173 | 0.183 |
| HCC-78 | 0.697 | 0.561 | 0.471 | 0.549 | 0.303 | 0.461 | 0.362 | 0.385 | 0.372 | 0.321 | 0.561 | 0.736 | 0.661 | 0.698 | 0.786 | 0.664 | 0.704 | 0.575 | 0.615 | 0.683 |
